# Test results taken from patent publication US12577247B2 (BUGWORKS RESEARCH, INC., priority 2021, dated 2026).
# Tested on: CT-26 syngeneic colon cancer
# Test: In vivo efficacy on CT-26 syngeneic colon cancer mice model
# Design: species or system Balb/c mice
# Details: PO, TID; for Decrease in tumor volume: by day 22
# Description: CT-26 syngeneic model of colon cancer in BALB/c is an established model and has been reported widely in literature for screening of compounds in efficacy studies for immune-oncology therapeutics.
# CT-26 Cell line expansion and sub-culturing: CT26 (CT26·WT, ATCC® CRL-2638) is an N-nitroso-N-methylurethane-(NNMU) induced, undifferentiated colon carcinoma cell line derived from Mus musculus, mouse colon tissue. Cells were cultured using standard techniques in RPMI 1640 with 10% FBS and 1× penicillin—streptomycin solution at 37° C. with 5% CO2 in a suitable incubator. Cell density was determined using a hemocytometer upon harvest and the cells were prepared in 100 μL of cold PBS in a microfuge tube and kept on ice until use for inoculations.
# Mice: All animal studies were conducted in accordance with an Institutional Animal Care and Use Committee. 6- to 8-week-old Balb/c mice were typically housed in sterilized suspended standard, polysulfone cages, with stainless steel top grills having facilities for holding pelleted food and drinking water in polycarbonate bottles with stainless steel sipper tubes and environment enrichment objects in the vivarium for two weeks prior to tumor cell injection. The same conditions were maintained throughout the subsequent tumor engraftment and treatment evaluation.
# Tumor engraftment: All animals were inoculated with 5×10^5/mouse in 100 μL subcutaneously in the lower right flank. Tumor growth was monitored twice a week from Day 4 onwards using a calibrated digital vernier caliper and the tumor volume calculated using the formula, tumor volume (mm3)=length×(width) 2/2. Once tumor volume reaches 100±50 mm^3 on Day 12, all animals were randomized into respective treatment groups as per study plan. See Table 1 for details regarding the setup and dosing of animals. Tumor volume at the time of randomization was 90 mm^3 There was no statistical significance in tumor volume at the time of treatment initiation. Post randomization, animals were treated with the test substance for 21 days. The average tumor volume/size in the treatment group allowed to reach up to 2500 mm^3, beyond this tumor size the animals to be sacrificed humanely as per general guidelines.
# Formulation and administration: Formulations were prepared with the components listed in Table 11 every day and mixed well before dosing each time and administered orally. The anti PD-1 antibody was administered via the intraperitoneal route.
# Data is represented as Mean±SEM n=4-10, *p<0.05 Vs Vehicle, One-Way ANOVA followed by Dunnett's multiple comparison test. […] Significant decrease in tumor volume was observed on Day 18 and Day 22 compared to vehicle treatment.
smiles,measurement,setting,value
"Cc1cccc(CCNc2nc3c(C)c(C)nn3c(N)c2C#N)n1 [Example 13, 7-amino-5-((2-(6-methylpyridin-2-yl)ethyl)amino)-2,3-dimethylpyrazolo[1,5-a]pyrimidine-6-carbonitrile]",Change in tumor volume,"1 mg/kg, vs vehicle",did not show significant change in tumor volume
same,Decrease in tumor volume,3 mg/kg,35%
same,Decrease in tumor volume,10 mg/kg,35%
same,Decrease in tumor volume,30 mg/kg,48%
